Results on five compounds are retold here after US7842678B2, “Compositions comprising oligosaccharides” (priority 2003, dated 2010).

The test system of assay [1] is VTEC NCTC 12900 adhesion to HT29 cells. In words: Adhesion assay of VTEC to HT29 cells, cultures subcultured on three successive days (Example 2). The format is cell-based, E. coli. As to conditions: for Inhibition of adhesion of VTEC to HT29 cells (FIG. 2): VTEC subcultured on three successive days; for Inhibition of adhesion of VTEC to HT29 cells (FIG. 1): 2.5 mg ml, plate counting, relative to oligosaccharide-free control. The procedure: VTEC NCTC 12900 was inoculated from frozen stocks into Dulbecco's modified eagle medium (DMEM) with added non-essential amino acids (1% v/v) and foetal bovine serum (5% v/v). The culture was incubated anaerobically at 37° C. for 18 h. A 20 μl aliquot was transferred into 2 ml of fresh DMEM, and incubated under the same conditions for 24 h. This was repeated twice more, so that the organism was subcultured on three successive days. An adhesion assay was then carried out as described previously, using 2.5 mg ml methyl-α-D-mannopyrannoside and D-mannose, and the adhered bacteria were enumerated by using plate counting.
Alpha 1,2 mannobiose and alpha 1,6 mannobiose were assayed for anti-adhesive activity using the method described hereinabove, with the modification that the VTEC cultures were subcultured on three successive days as described above.
Further oligosaccharides (pectic oligosaccharides, isomalto-oligosaccharides, GOS, partially hydrolyzed guar gum, xylo oligosaccharides and lactulose) have been tested for anti-adhesive activity against E. coli, both VTEC and EPEC pathovars. Methods were as described previously but with three subcultures included in the culture preparation stage, as described above. Compounds tested included GOS and pectic oligosaccharides that had been further purified by ultrafiltration to remove nitrates.

Assay [2] has as its system VTEC adhesion to HT29 cells. The experiment in a line: Adhesion assay of VTEC to HT29 cell monolayers (Example 1). The format is cell-based, E. coli. How it is done:
(§1) HT29 cells were grown to 95-100% confluence in 12-well tissue culture plates. Bacterial cultures were grown in tissue culture medium, anaerobically at 37° C. These incubation conditions promoted expression of adhesions by the bacteria. The bacteria (in buffer, with or without the test oligosaccharide) were added to the cell monolayers and incubated for 2 h at 37° C. aerobically under 5% CO2. After incubation, the cell layers were washed three times in buffer and the adherent bacteria quantified. Assays were performed in triplicate
(§2) The tested oligosaccharides were methyl-α-mannopyrannoside and CGMP.
(§3) After the adhesion and washing stages, the cells were suspended and vigorously mixed to break up clumps. The resulting suspension was then plated onto non-selective agar media appropriate for the test organism.
(§4) The Initial inoculum was 7.3 log cfu ml^−1 (VTEC) and 7.0 log cfu ml^−1 (EPEC).

The subject of assay [3] is EPEC adhesion to HT29 cells. In words: Adhesion assay of EPEC to HT29 cell monolayers (Example 1). The format is cell-based, E. coli. The settings on record: oligosaccharide concentration 0.25%; initial inoculum 7.0 log cfu ml^−1; buffer only 5.3; 2 h at 37° C. The procedure: as §1, §2, §3, §4
Assay [4] relates to E. coli EPEC (O119:H4) adhesion to HT29 cells. The experiment in a line: Adhesion assay of carbohydrates against E. coli EPEC on HT29 monolayers (Example 3). Type of assay: cell-based. As to conditions: carbohydrate solution 5 mg/ml in PBS mixed 1:1 with bacterial suspension; 2 hours at 37° C. aerobically; relative to carbohydrate-free control. How it is done:
The saccharides were tested against one strain of E. coli VTEC (0157:1H7 strain NCTC 12900) and one strain of E. coli EPEC (O119:H4).
E. coli broth cultures for adhesion assays were grown in DMEM supplemented with 5% v/v FBS and 1% non-essential amino acid solution (SDMEM). For each strain, a broth was inoculated from a slope culture and incubated anaerobically at 37° C. for 18-24 h. The overnight culture was then inoculated (1% v/v) into fresh SDMEM and incubated for a further 18-24 h under the same conditions. This was repeated once more. On the day of the assay, a 10% v/v inoculum was placed into pre-warmed SDMEM and incubated for 4 h anaerobically at 37° C.
A culture of the test strain was prepared as described above, then diluted 1:500 in PBS. The viable count of the diluted suspension was determined by spread plating onto PCA, with decimal dilutions carried out in MRD as necessary. The carbohydrates to be tested were dissolved in PBS (5 mg/ml) and sterilised by passing through a 0.2 μm syringe filter. […] A 1 ml aliquot of PBS was then pipetted into each well, and pipette mixed until the monolayer was completely dislodged and clumps broken up (as determined visually). […]
Data processing: Viable counts were calculated for all wells and the inoculum, and expressed as colony forming units per ml (cfu/ml). For each test, the mean and standard error of the triplicate wells were calculated. […]

For the compound `OC[C@H]1O[C@H](O[C@@H]2C(O)O[C@H](CO)[C@@H](O)[C@@H]2O)[C@@H](O)[C@@H](O)[C@@H]1O` (stereo partly drawn) [Alpha 1,2 mannobiose], the “Inhibition of adhesion of VTEC to HT29 cells (FIG. 2)” value (“Inhibition of adhesion … (FIG. 2)” below) in assay [1] is recorded as “Inhibition of adhesion was detected”.
Take `O=C[C@@H](O)[C@@H](O)[C@H](O)[C@H](O)CO` [D-mannose]: the “Inhibition of adhesion of VTEC to HT29 cells (FIG. 1)” value in assay [1] is given as “good inhibition of adhesion”.
Turning to `OC[C@H]1O[C@H](OC[C@H]2O[C@H](O)[C@@H](O)[C@@H](O)[C@@H]2O)[C@@H](O)[C@@H](O)[C@@H]1O` [alpha 1,6 mannobiose], the “Inhibition of adhesion … (FIG. 2)” value in assay [1] was “Inhibition of adhesion was detected”.
Consider `CO[C@H]1O[C@H](CO)[C@@H](O)[C@H](O)[C@@H]1O` [methyl-α-mannopyranoside, Methyl-α-D-mannopyranoside], for which the “Reduction in adhesion (in words)” value in assay [2] (oligosaccharide 0.25%, pathovar not given) is “reduction in adhesion”. Besides, the “Viable count of adhered VTEC” value in assay [2] (oligosaccharide concentration 0.25%, initial inoculum 7.3 log cfu ml^−1, buffer only 6.3, 2 h at 37° C.) is given as 4.8 log cfu ml^−1. For the same compound, in assay [1], the “Inhibition of adhesion of VTEC to HT29 cells (FIG. 1)” value was “good inhibition of adhesion” and the “Inhibition of adhesion … (FIG. 2)” value is “Inhibition of adhesion”. The “Viable count of adhered EPEC” value in assay [3] amounted to 5.1 log cfu ml^−1.
As to β-1,3-glucan [curdlan], the “Anti-adhesive activity against enteropathogenic E. coli EPEC (FIG. 5)” value in assay [4] is recorded as “positive”.
